Among the data in patent publication US5916759A, “Cholesterol oxidase from Brevibacterium sterolicum” (Boehringer Mannheim GmbH, priority 1993, dated 1999) are Km values, retold here.

For data set [1], the target named is Cholesterol oxidase I from Brevibacterium sterolicum (Brevibacterium sterolicum, UniProt P22637). The following applies: read-out: KM (affinity for cholesterol); cited from earlier work.
Substrate in data set [2]: CC(C)CCC[C@@H](C)[C@H]1CC[C@H]2[C@@H]3CC=C4C[C@@H](O)CC[C@]4(C)[C@H]3CC[C@]12C
Briefly: KM value for cholesterol of the cholesterol oxidase according to the invention. Type of data set: biochemical, Brevibacterium sterolicum. The following applies: other: in 0.5 mol/l potassium phosphate buffer pH 7.5 at 25° C. The protocol: This cholesterol oxidase has a molecular weight of 60 kD, an isoelectric point of ca. 5.5 (each measured in the Phast System, Pharmacia LKB) and a KM value for cholesterol of 1×10^-4 mol/l (in 0.5 mol/l potassium phosphate buffer pH 7.5 at 25° C.) and is active in a pH range of 5.5 to 8.0.
3 ml potassium phosphate buffer (0.5 mol/l, pH 7.5) containing 0.4% Thesit® (Boehringer Mannheim GmbH, Catalogue No. 006190),
0.1 ml cholesterol solution (0.4% cholesterol, 10% l-propanol, 10% Thesit®),
0.02 ml H2 O2 (0.49 mol/l in redistilled water), it is mixed, after addition of 0.02 ml catalase (from bovine liver, 20 mg protein/ml, specific activity ca. 65,000 U/mg, Boehringer Mannheim GmbH, Catalogue No. 0156744 diluted immediately to 0.075-0.15 U/ml before measurement with ice-cold potassium phosphate buffer, containing 0.4% Thesit) it is again mixed, the solution is brought to a temperature of 25° C. and subsequently the reaction is started by addition of 0.05 ml sample solution. After careful mixing the change in absorbance at 240 nm is monitored and the activity of cholesterol oxidase is determined from the linear region of the absorbance curve: [formula] in which .di-elect cons. 240=15.5 mmol^-1 ×1×cm^-1.

Sequence of Cholesterol oxidase I from Brevibacterium sterolicum (P22637 46-552): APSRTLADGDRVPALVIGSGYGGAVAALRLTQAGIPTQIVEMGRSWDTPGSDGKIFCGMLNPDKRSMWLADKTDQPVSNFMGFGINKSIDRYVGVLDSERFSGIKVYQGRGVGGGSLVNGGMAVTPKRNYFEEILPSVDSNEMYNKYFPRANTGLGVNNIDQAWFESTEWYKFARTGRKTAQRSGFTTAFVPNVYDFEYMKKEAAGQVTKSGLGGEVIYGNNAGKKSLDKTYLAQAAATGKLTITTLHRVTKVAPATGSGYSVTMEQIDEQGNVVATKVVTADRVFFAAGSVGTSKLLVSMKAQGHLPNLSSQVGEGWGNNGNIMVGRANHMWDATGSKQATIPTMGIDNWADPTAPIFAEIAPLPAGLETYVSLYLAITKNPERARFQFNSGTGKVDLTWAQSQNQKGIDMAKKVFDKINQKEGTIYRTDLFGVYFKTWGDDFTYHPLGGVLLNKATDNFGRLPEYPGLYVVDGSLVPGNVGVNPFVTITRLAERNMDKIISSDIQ

For orientation: Km means the substrate concentration at which the rate is half of its maximum. `CC(C)CCC[C@@H](C)[C@H]1CC[C@H]2[C@@H]3CC=C4C[C@@H](O)CC[C@]4(C)[C@H]3CC[C@]12C` [cholesterol, 5-cholesten-3-β-ol]: in data set [1], the Km is 1100 µM.

B1: cholesterol oxidase from Brevibacterium sterolicum, SEQ ID NO 2 (Brevibacterium sterolicum) (protein)
chain: STGPVAPLPTPPNFPNDIALFQQAYQNWSKEIMLDATWVCSPKTPQDVVRLANWAHEHDYKIRPRGAMHGWTPLTVEKGANVEKVILADTMTHLNGITVNTGGPVATVTAGAGASIEAIVTELQKHDLGWANLPAPGVLSIGGALAVNAHGAALPAVGQTTLPGHTYGSLSNLVTELTAVVWNGTTYALETYQRNDPRITPLLTNLGRCFLTSVTMQAGPNFRQRCQSYTDIPWRELFAPKGADGRTFEKFVAESGGAEAIWYPFTEKPWMKVWTVSPTKPDSSNEVGSLGSAGSLVGKPPQAREVSGPYNYIFSDNLPEPITDMIGAINAGNPGIAPLFGPAMYEITKLGLAATNANDIWGWSKDVQFYIKATTLRLTEGGGAVVTSRANIATVINDFTEWFHERIEFYRAKGEFPLNGPVEIRCCGLDQAADVKVPSVGPPTISATRPRPDHPDWDVAIWLNVLGVPGTPGMFEFYREMEQWMRSHYNNDDATFRPEWSKGWAFGPDPYTDNDIVTNKMRATYIEGVPTTENWDTARARYNQIDPHRVFTNGFMDKLLP
For B1, the Michaelis constant (Km) in data set [2] was 100 µM.
